Where two headings read alike, the source gives them in different places.
Tests used:
HER2 = HER2 (Homo sapiens (Human), UniProt P04626); assay: BT474 cellular assay (HER2 inhibition), phospho-HER2 ELISA; assay type: cell-based; conditions: inhibition of phosphor HER2, BT474 cells, 2 hours compound incubation
Method: Assay a) BT474 Cellular Assay (HER2 Inhibition) Inhibition of phosphor HER2 was determined by enzyme-linked immunosorbent assay (ELISA) in BT474 cells. BT474 cell line was purchased from [NT] number HTB-20). Human Phospho-ErbB2 ELISA kit was purchased from R&D systems (catalog number DYC1768). Day 1: When the cells reach 70-90% confluence, cells were trypsinized and re-suspended. 5000 cells per well were seeded to a 384-well plate. The plate was incubated at 37° C. with 5% CO2 for 24 hours. ELISA plate was coated with 2 μg/ml capture antibody, which was incubated at 4° C. overnight. Day 2: 25 nl compounds was dosed by Echo from source plate and the 384-well plate was incubated at 37° C. for 2 hours. 30 μl lysis buffer was added to each well and the 384-well plate was shaken softly at 4° C. for 30 minutes. The ELISA plate was washed, blocked and incubated at room temperature for 1-2 hours. The blocked ELISA plate was washed and 20 μl cell lysate was transferred from the 384-well plate to the ELISA plate, which was incubated overnight at 4° C. Day 3: The ELISA plate was washed 3 times. 25 μl/well detection antibody was added (diluted 1 by 2000 in 1% BSA in PBS). After 2 hours of incubation with detection antibody, the ELISA plate was washed 3 times, 25 μl/well TMB substrate was added and incubated for 10-15 minutes before stop solution was added. Absorbance at 450 nm and 570 nm was read within 30 minutes after adding the stop solution. […] The IC50 results are provided in Table 1 for some exemplary compounds.

wt-EGFR = wt-EGFR (Homo sapiens (Human), UniProt P00533); assay: NCI H838 cellular assay (wt-EGFR inhibition), phospho-EGFR ELISA; assay type: cell-based
Method: Assay b) NCI H838 Cellular Assay (Wt-EGFR Inhibition) Inhibition of phosphor wt-EGFR was determined by enzyme-linked immunosorbent assay (ELISA) in NCI H838 cells (ATCC, catalog number CRL-5844). Human Phospho-EGFR DuoSet IC ELISA kit was purchased from R&D systems (catalog number DYC1095). Day 1: When the cells reach 70-90% confluence, cells were trypsinized and re-suspended. 5000 cells per well were seeded to a 384-well plate. The plate was incubated at 37° C. with 5% CO2 for 24 hours. Day 2: Cell culture medium was replaced with 40 μL FBS-Free RPMI1640. After 2 hours of starvation, the 384-well plate was dosed with 40 nL of compounds by Echo from source plate and the 384-well plate was incubated at 37° C. with 5% CO2 for 2 hours. After 2 hours of incubation with compounds, EGF (final concentration at 100 ng/ml) was added to the plate which was incubated at 37° C. with 5% CO2 for 5-10 minutes. Medium was discarded from the plate and 30 μl/well lysis buffer was added to the plate which was incubated at 4° C. for 10 minutes. The cell lysates can be stored at −80° C. in cell plates but must be thawed at room temperature for at least 30 minutes prior to use and continuing the assay. ELISA plate was coated by diluting capture antibody to 4 μg/ml with PBS, and 25 μl/well was dispensed to 384 well UltraCruz® ELISA Plate, which was incubated at 4° C. overnight. Day 3: After the plates were washed three times with 100 μl/well of wash buffer, the plates were blocked by adding 75 μl of Block Buffer to each well and incubated at room temperature for 3 hours. After the plates were washed three times with 100 μl/well of wash buffer, 20 μl cell lysate was transferred to the blocked ELISA plate which was incubated for 2 hours at room temperature. After the plates were washed three times with 100 μl/well of wash buffer, 25 μl/well detection antibody (dilute 1 in 900 in assay buffer) was added the plate which was incubated for 2 hours, protected from light. After washed three times, 25 μl/well TMB substrate was added to the ELISA plate which was incubated for about 10-15 min, protected from light before addition of 25 μl/well stop solution. Absorbance was read at 450 nm and 570 nm within 30 minutes.

[1] = inhibition of phosphor wt-EGFR, NCI H838 cells, EGF 100 ng/ml

wt-EGFR, sequence (P00533 25-1210): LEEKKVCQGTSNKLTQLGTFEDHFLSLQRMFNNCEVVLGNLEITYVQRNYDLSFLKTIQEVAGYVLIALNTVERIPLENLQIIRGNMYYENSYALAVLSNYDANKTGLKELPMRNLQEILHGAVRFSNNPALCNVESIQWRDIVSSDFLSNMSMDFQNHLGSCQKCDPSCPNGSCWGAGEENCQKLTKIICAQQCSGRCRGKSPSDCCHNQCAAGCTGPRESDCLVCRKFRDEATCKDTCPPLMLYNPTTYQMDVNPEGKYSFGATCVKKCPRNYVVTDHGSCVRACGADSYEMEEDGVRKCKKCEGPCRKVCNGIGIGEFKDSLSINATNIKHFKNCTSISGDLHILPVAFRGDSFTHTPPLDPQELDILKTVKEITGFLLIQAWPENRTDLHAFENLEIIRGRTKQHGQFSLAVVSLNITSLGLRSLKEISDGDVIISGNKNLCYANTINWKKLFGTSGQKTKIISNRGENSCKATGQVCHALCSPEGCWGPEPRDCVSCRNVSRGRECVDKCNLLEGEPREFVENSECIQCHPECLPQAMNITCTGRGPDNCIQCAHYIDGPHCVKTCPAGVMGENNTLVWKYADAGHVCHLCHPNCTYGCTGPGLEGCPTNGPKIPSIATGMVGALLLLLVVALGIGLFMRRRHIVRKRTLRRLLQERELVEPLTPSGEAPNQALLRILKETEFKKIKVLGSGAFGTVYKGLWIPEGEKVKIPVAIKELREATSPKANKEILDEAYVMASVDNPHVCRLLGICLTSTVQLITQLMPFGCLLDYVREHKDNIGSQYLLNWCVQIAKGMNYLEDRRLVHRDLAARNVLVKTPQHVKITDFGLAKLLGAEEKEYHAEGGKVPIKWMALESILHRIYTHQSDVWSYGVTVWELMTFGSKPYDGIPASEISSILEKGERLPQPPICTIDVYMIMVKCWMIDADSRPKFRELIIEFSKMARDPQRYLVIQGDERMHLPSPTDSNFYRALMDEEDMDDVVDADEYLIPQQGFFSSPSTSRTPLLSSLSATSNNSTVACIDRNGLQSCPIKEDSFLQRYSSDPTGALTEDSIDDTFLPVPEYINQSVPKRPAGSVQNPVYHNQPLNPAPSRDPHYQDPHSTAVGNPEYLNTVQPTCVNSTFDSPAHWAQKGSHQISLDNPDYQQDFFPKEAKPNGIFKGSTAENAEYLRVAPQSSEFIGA
HER2, sequence (P04626 23-1255): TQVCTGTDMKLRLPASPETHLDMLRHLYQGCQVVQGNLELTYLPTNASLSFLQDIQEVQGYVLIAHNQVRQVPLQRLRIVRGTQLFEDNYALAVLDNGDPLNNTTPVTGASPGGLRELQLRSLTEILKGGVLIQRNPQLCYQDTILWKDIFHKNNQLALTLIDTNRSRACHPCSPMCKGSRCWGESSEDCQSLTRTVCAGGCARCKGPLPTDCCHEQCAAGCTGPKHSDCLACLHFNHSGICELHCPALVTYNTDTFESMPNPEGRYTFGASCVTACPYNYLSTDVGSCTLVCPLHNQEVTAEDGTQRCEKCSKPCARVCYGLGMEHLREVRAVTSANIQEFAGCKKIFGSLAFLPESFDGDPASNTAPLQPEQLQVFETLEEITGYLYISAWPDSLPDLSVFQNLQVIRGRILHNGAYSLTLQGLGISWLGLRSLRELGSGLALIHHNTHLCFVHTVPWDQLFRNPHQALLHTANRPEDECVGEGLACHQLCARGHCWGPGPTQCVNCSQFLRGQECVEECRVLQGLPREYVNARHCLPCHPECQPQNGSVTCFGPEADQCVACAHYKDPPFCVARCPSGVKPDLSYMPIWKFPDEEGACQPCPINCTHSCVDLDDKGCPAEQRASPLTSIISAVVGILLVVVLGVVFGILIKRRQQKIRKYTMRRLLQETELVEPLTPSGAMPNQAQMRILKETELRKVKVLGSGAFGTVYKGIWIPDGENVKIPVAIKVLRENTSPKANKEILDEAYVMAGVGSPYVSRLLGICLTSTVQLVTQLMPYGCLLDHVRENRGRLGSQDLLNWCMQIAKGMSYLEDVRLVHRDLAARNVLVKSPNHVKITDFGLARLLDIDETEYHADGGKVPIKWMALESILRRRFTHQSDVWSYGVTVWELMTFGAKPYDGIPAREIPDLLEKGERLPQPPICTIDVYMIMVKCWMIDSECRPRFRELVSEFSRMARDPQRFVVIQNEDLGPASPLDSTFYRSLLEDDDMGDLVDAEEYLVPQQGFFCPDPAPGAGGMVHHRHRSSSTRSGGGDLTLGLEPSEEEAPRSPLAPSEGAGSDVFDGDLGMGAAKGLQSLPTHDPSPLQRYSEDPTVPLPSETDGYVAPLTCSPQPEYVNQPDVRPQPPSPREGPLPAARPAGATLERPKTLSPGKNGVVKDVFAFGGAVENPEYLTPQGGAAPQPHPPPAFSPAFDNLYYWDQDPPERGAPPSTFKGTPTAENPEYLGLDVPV

| SMILES | IC50 (HER2) [nM] | IC50 (wt-EGFR; [1]) [nM] | IC50 (wt-EGFR) [nM] |
| --- | --- | --- | --- |
| COc1ccc2ncnc(Nc3ccc(Oc4cc5ncnn5cn4)c(C)c3)c2c1N1CC(N(C)C)C1 [Example 1, N-(4-([1,2,4]triazolo[1,5-c]pyrimidin-7-yloxy)-3-methylphenyl)-5-(3-(dimethylamino)azetidin-1-yl)-6-methoxyquinazolin-4-amine] | 9.2 | 2800 |  |
| [2H]C([2H])([2H])Oc1ccc2ncnc(Nc3ccc(Oc4cc5ncnn5cn4)c(C)c3)c2c1O[C@H]1CCN(C)CC1(F)F [Example 37, (S)—N-(4-([1,2,4]triazolo[1,5-c]pyrimidin-7-yloxy)-3-methylphenyl)-5-((3,3-difluoro-1-methylpiperidin-4-yl)oxy)-6-(methoxy-d3)quinazolin-4-amine] | 12 |  | > 10000 |
| COc1ccc2ncnc(Nc3ccc(Oc4cc5ncnn5cn4)c(C)c3)c2c1N1CC2(C[C@H](F)CCN2C)C1 (single isomer, unassigned) [Example 47] | 4.1 | 4540 |  |
| COc1ccc2ncnc(Nc3ccc(Oc4cc5ncnn5cn4)c(C)c3)c2c1N1CCOCC1 [Example 4, N-(4-([1,2,4]triazolo[1,5-c]pyrimidin-7-yloxy)-3-methylphenyl)-6-methoxy-5-morpholinoquinazolin-4-amine] | 105 | > 10000 |  |
| COc1ccc2ncnc(Nc3ccc(Oc4cc5ncnn5cn4)c(C)c3)c2c1N1C[C@@H]2[C@H]1CCN2C [Example 46, N-(4-([1,2,4]triazolo[1,5-c]pyrimidin-7-yloxy)-3-methylphenyl)-6-methoxy-5-((1R,5R)-2-methyl-2,6-diazabicyclo[3.2.0]heptan-6-yl)quinazolin-4-amine] | 7.3 | 215 |  |
| COc1ccc2ncnc(Nc3ccc(Oc4cc5ncnn5cn4)c(C)c3)c2c1N1CC2(C[C@H](F)CN2C)C1 (single isomer, unassigned) [Example 43] | 24 | 2030 |  |
| Cc1cc(Nc2ncnc3ccc(NC4=NC(C)(C)CO4)c(N4CC(N(C)C)C4)c23)ccc1Oc1cc2ncnn2cn1 [Example 54, N4-(4-([1,2,4]triazolo[1,5-c]pyrimidin-7-yloxy)-3-methylphenyl)-N6-(4,4-dimethyl-4,5-dihydrooxazol-2-yl)-5-(3-(dimethylamino)azetidin-1-yl)quinazoline-4,6-diamine] | 190 | > 10000 |  |
| COc1ccc2ncnc(Nc3ccc(Oc4cc5ncnn5cn4)c(C)c3)c2c1N1CC2(C[C@@H](F)CN2C)C1 (single isomer, unassigned) [Example 44] | 5 | 234 |  |
| COc1ccc2ncnc(Nc3ccc(Oc4cc5ncnn5cn4)c(C)c3)c2c1N1CC2OCCN(C)C2C1 (stereo not shown) [Example 42, N-(4-([1,2,4]triazolo[1,5-c]pyrimidin-7-yloxy)-3-methylphenyl)-6-methoxy-5-(4-methylhexahydropyrrolo[3,4-b][1,4]oxazin-6(2H)-yl)quinazolin-4-amine] | 58 | > 10000 |  |
| Cc1cc(Nc2ncnc3cccc(N4CC5(CN(C)CCO5)C4)c23)ccc1Oc1cc2ncnn2cn1 [Example 55, N-(4-([1,2,4]triazolo[1,5-c]pyrimidin-7-yloxy)-3-methylphenyl)-5-(8-methyl-5-oxa-2,8-diazaspiro[3.5]nonan-2-yl)quinazolin-4-amine] | 912 | > 10000 |  |
| COc1ccc2ncnc(Nc3ccc(Oc4cc5ncnn5cn4)c(C)c3)c2c1N1CC2(COCCN2C)C1 [Example 41, N-(4-([1,2,4]triazolo[1,5-c]pyrimidin-7-yloxy)-3-methylphenyl)-6-methoxy-5-(5-methyl-8-oxa-2,5-diazaspiro[3.5]nonan-2-yl)quinazolin-4-amine] | 35 | 2260 |  |
| COc1cc(O[C@H]2CCN(C)CC2(F)F)c2c(Nc3ccc(Oc4cc5ncnn5cn4)c(C)c3)ncnc2c1 [Example 51, (S)—N-(4-([1,2,4]triazolo[1,5-c]pyrimidin-7-yloxy)-3-methylphenyl)-5-((3,3-difluoro-1-methylpiperidin-4-yl)oxy)-7-methoxyquinazolin-4-amine] | 176 | 183 |  |
| COc1ccc2ncnc(Nc3ccc(Oc4cc5ncnn5cn4)c(C)c3)c2c1N1C[C@H]2[C@@H]1CCN2C [Example 45, N-(4-([1,2,4]triazolo[1,5-c]pyrimidin-7-yloxy)-3-methylphenyl)-6-methoxy-5-((1S,5S)-2-methyl-2,6-diazabicyclo[3.2.0]heptan-6-yl)quinazolin-4-amine] | 2.5 | 6600 |  |
| COc1ccc2ncnc(Nc3ccc(Oc4cc5ncnn5cn4)c(C)c3)c2c1N1CC2(C[C@@H](F)CCN2C)C1 (single isomer, unassigned) [Example 48] | 6.7 | 364 |  |
| [2H]C([2H])([2H])N1CCC(Oc2c(OC)ccc3ncnc(Nc4ccc(Oc5cc6ncnn6cn5)c(C)c4)c23)C(F)(F)C1 (stereo not shown) [Example 35, N-(4-([1,2,4]triazolo[1,5-c]pyrimidin-7-yloxy)-3-methylphenyl)-5-((3,3-difluoro-1-(methyl-d3)piperidin-4-yl)oxy)-6-methoxyquinazolin-4-amine] | 16 |  | 1280 |
| COc1cc(O[C@@H]2CCN(C)CC2(F)F)c2c(Nc3ccc(Oc4cc5ncnn5cn4)c(C)c3)ncnc2c1 [Example 52, (R)—N-(4-([1,2,4]triazolo[1,5-c]pyrimidin-7-yloxy)-3-methylphenyl)-5-((3,3-difluoro-1-methylpiperidin-4-yl)oxy)-7-methoxyquinazolin-4-amine] | 182 | 800 |  |
| COc1ccc2ncnc(Nc3ccc(Oc4cc5ncnn5cn4)c(C)c3)c2c1O[C@H]1CCN(C)CC1(F)F [Example 32, (S)—N-(4-([1,2,4]triazolo[1,5-c]pyrimidin-7-yloxy)-3-methylphenyl)-5-((3,3-difluoro-1-methylpiperidin-4-yl)oxy)-6-methoxyquinazolin-4-amine] | 16 |  | 4800 |
| Cc1cc(Nc2ncnc3ccc(OCCF)c(N4CC(N(C)C)C4)c23)ccc1Oc1cc2ncnn2cn1 [Example 12, N-(4-([1,2,4]triazolo[1,5-c]pyrimidin-7-yloxy)-3-methylphenyl)-5-(3-(dimethylamino)azetidin-1-yl)-6-(2-fluoroethoxy)quinazolin-4-amine] | 26 | 180 |  |
| COc1ccc2ncnc(Nc3ccc(Oc4cc5ncnn5cn4)c(C)c3)c2c1N1CC2(CN(C)CCO2)C1 [Example 38, N-(4-([1,2,4]triazolo[1,5-c]pyrimidin-7-yloxy)-3-methylphenyl)-6-methoxy-5-(8-methyl-5-oxa-2,8-diazaspiro[3.5]nonan-2-yl)quinazolin-4-amine] | 37 | > 10000 |  |
| Cc1cc(Nc2ncnc3ccc(O[C@H]4CCOC4)c(O[C@@H]4CCN(C)CC4(F)F)c23)ccc1Oc1cc2ncnn2cn1 [Example 21, N-(4-([1,2,4]triazolo[1,5-c]pyrimidin-7-yloxy)-3-methylphenyl)-5-(((R)-3,3-difluoro-1-methylpiperidin-4-yl)oxy)-6-(((S)-tetrahydrofuran-3-yl)oxy)quinazolin-4-amine] | 15 |  |  |
| COc1ccc2ncc(C#N)c(Nc3ccc(Oc4cc5ncnn5cn4)c(C)c3)c2c1O[C@@H]1CCN(C)CC1(F)F [Example 86, (R)-4-((4-([1,2,4]triazolo[1,5-c]pyrimidin-7-yloxy)-3-methylphenyl)amino)-5-((3,3-difluoro-1-methylpiperidin-4-yl)oxy)-6-methoxyquinoline-3-carbonitrile] | 208 |  |  |
